The source of these data is a melting point compilation (Tetko et al.; mined from patent text by program, amines drawn as free bases though some values may be those of a salt).

For orientation: melting point means the temperature, or range, at which the solid turns liquid.

Regarding `O=C(NCCNC(=O)C1CCNC1)OCc1ccccc1` (stereo not drawn), the melting point is 129 to 131 °C.

`Cc1ccc(Cl)c(Nc2ccccc2-c2noc(=O)[nH]2)c1Cl` gave a melting point of 209 to 210 °C. For the compound `CCN1C(=O)CSC1=NOC(=O)NCCCl`, the melting point lay within 99 to 102 °C.

As to `CC(NCC(O)CP(=O)(O)CC1CCCCC1)c1ccc(Cl)c(Cl)c1` (stereo not drawn), the melting point is 173 to 178 °C.

`Cc1[nH]c(=O)ccc1-c1ccc(-n2ccnc2)cc1` came in with a melting point of 310 to 314 °C. `COC(=O)c1cc(N)c(Oc2cc(C)cc(C)c2)c(S(N)(=O)=O)c1` displayed a melting point of 195 to 196 °C.

Turning to `CCCn1c(=O)n(-c2ccc3c(c2)OCO3)c2ncc(N)cc21`, the melting point is 177 to 178 °C. For the compound `CCCOc1c(OC)cc(C(=O)O)cc1[N+](=O)[O-]`, the melting point is 121 to 123 °C. The compound `O=c1[nH]ccc2c(OCc3ccccc3)cccc12` registered a melting point of 165 to 168 °C. The result for `CC(Cc1c[nH]c2ccccc12)(NC(=O)OC1C2CC3CC(C2)CC1C3)C(=O)NCCc1ccco1` (stereo not drawn) reads 87 to 97 °C; that for `CCOC(=O)C(=O)CC(=O)c1cn(Cc2ccc(F)cc2)c2cc(F)ccc2c1=O`, 151 to 152 °C; that for `CCOC(=O)C1=C(C)NC(CSCCOC(C)=O)=C(C(=O)OCC)C1c1cccc([N+](=O)[O-])c1` (stereo not drawn), 84 to 86 °C. `CCCCOCCOc1ccc(-c2ccc(N3CCC(=O)C3)c(C=C(C)C(=O)OCC)c2)cc1`: the melting point was in the range of 98.5 to 99 °C.

In turn, `CCOC(C)=CC(=O)Nc1ccc(Cl)c(Cl)c1` came in with a melting point of 126 °C. Compound `CNC1=Nc2ccc(Cl)cc2C(c2ccccc2F)=NC1` came in with a melting point of 204 to 206 °C. As to `Cc1cccc2c(Nc3cccc(OCCN(CCCl)CCCl)c3)c3cccc(C(=O)NCCN(C)C)c3nc12`, the melting point was 129 to 130 °C. The result for `COCC1CN(c2ccc(C3CCC(OCCCCC(N)=O)CC3)cc2)C(=O)O1` (racemic) reads 72 to 74 °C; that for `CCOC(=O)c1ccc(NC(=O)C=Cc2ccc3ccccc3c2)cc1`, 173 to 175 °C; that for `Cc1nc2c([nH]1)C(=O)c1ccccc1C2=O`, more than 260 °C. With `C=C1CC2C(CCC3(C)C2CCC3(O)C(C)=O)C2(C)CCC(=O)C=C12` (stereo not drawn), the melting point was 218 to 220 °C. The result for `O=C(NCc1csc(C(F)(F)F)n1)c1ccnc(N2CCN(Cc3ccc(F)cc3)C2=O)c1` reads 66 to 68 °C. In turn, `CCCCCCCCCCCCC(=O)CC(O)Cc1ccccc1` (stereo not drawn) registered a melting point of 40 to 43 °C. Consider `CCN1CCN(C)C[C@@H](NC(=O)c2cc(Br)c(NC)nc2OC)C1`, for which the melting point lay within 52 to 55 °C. With `CC(NC1CCc2ccccc21)C(=O)O` (stereo not drawn), the melting point was 248 to 250 °C.

For `CN(CC(=O)OCCCCNc1cccc2c1C(=O)c1ccccc1C2=O)C(=O)OC(C)(C)C`, the melting point came to 90 °C.

The compound `Cc1cc(C)n(-c2nc(Nc3ccc(Cl)cc3)cnc2CN)n1` came in with a melting point of 173 to 176 °C. In turn, `COc1ccc(Sc2nc(-c3ccc(OC)cc3)c(-c3ccc(OC)cc3)[nH]2)cc1` displayed a melting point of 148 °C.

Turning to `CC12CC(=O)NN=C1c1ccc(Br)cc1C2` (stereo not drawn), the melting point is 242 °C. `COC(=O)CCC#Cc1cc(Cl)ccc1NS(=O)(=O)c1ccc(-c2ccccc2)cc1` had a melting point of 93 °C. Under `CCCNC(=O)N(C)C1CCNCC1` stands 84 to 86 °C.

For `COC(=O)c1c(-c2ccccc2)nn2c1-c1ccccc1CC2`, the melting point lay within 112 to 113 °C. Consider `Fc1cccc2c(Nc3ccncc3)noc12`, for which the melting point fell in the range of 234 to 236 °C.

Turning to `CCOCCOc1ccc(CCNC(=O)/C=C/c2cccs2)cc1S(=O)(=O)NC(=O)NC`, the melting point turned out to be 65 °C. The result for `CS(=O)(=O)c1ccc(Oc2ccc(Br)cc2)nc1` reads 125 to 126 °C; that for `N#Cc1cc(-c2cccnc2)nn1-c1ccc(NC(=O)c2ccc(OCCCC3OCCO3)nc2)cc1`, 197 to 198 °C. As to `CONC(=O)Nc1ccc(-c2sc3c(c2CN(C)C(C)c2ccccc2)c(=O)n(-c2ccc(F)cn2)c(=O)n3Cc2c(F)cccc2F)cc1` (stereo not drawn), the melting point lay within 128 to 130 °C. Take `Cc1nn(-c2cccc(C(F)(F)F)c2)cc1C(=O)O`: the melting point was in the range of 166 to 168 °C.

For the compound `O[C@H]1CC[C@H](c2ccc(Br)cc2)CC1`, the melting point fell in the range of 110 to 111 °C. With `COc1cc(Cl)nn2c(-c3ccnc(N)c3)c(-c3ccc(F)c(C)c3)nc12`, the melting point is 200 to 201 °C. The compound `Cc1nccn1-c1ccc(-c2cnc([C@H](Cc3ccccn3)N(C=O)c3cc4ccccc4o3)n2C)cc1` displayed a melting point of 167 to 171 °C. Take `CCOC(=O)CCCn1c(C(=O)O)cc2cc(C)ccc21`: the melting point was 142 °C. In turn, `O=C1CNC(=O)N1C1CCNCC1` showed a melting point of 214 to 217 °C. `COc1ccc(CN2C(=O)C(C)(c3cc(NC=O)ccc3Cl)c3cc(Cl)ccc32)c(OC)c1` (stereo not drawn) showed a melting point of 190 °C. `CN1Cc2c(NC(=O)OCc3ccccc3)ncn2-c2ccccc2C1=O` displayed a melting point of 246 to 247 °C. In the case of `Nc1ccc(S(=O)(=O)N2C=CC(CCO)Sc3ccccc32)cc1` (stereo not drawn), the melting point lay within 145 to 148 °C. Compound `COc1cn(-c2ccc(-n3cc(Cl)cn3)cc2F)nc(-c2ccnn2-c2ccccc2)c1=O` yielded a melting point of 190 to 192 °C. The result for `O=C(O)c1cn(-c2cnsn2)c2nc(Cl)c(F)cc2c1=O` reads 222 to 223 °C; that for `O=C(Nc1ccccc1SCc1ncon1)OCc1ccccc1`, 41 °C. On to `CN(c1cccc2cc(C3=NCC(C(C)(C)O)S3)[nH]c12)S(=O)(=O)c1cccs1` (stereo not drawn), for which the melting point lay within 174 to 175 °C. On to `CCCSCC(=O)NNC(=O)N1Cc2ccccc2Oc2ccc(Cl)cc21`, for which the melting point was 78 to 81 °C. With `CCSc1ccc2c3c([nH]c2c1)CCCCC3C` (stereo not drawn), the melting point amounted to 44 °C.

Turning to `COc1cc2c(cc1C(C)=O)CC1(CCCCN1C(=O)C(F)(F)F)CC2` (stereo not drawn), the melting point lay within 156 to 157 °C. Under `CC(C)(Oc1ccc(CCNC(=O)C=Cc2ccccc2Cl)cc1)C(=O)O` stands 145 to 146 °C. `CCC(C)NC(=O)n1nc(Oc2c(Cl)cc(C(F)(F)F)cc2Cl)cc1C` (stereo not drawn) displayed a melting point of 73 to 75 °C. As to `CCCCn1nc(C(C)=O)nc1Cc1ccc(-c2ccccc2-c2nnn[nH]2)nc1`, the melting point fell in the range of 157 to 159 °C.

`CC(C)/[N+]([O-])=C/c1ccc(O)cc1` gave a melting point of 217 to 218 °C. The result for `CCCOc1cccc(CO)c1-c1ccc(OC)cc1O` reads 102 to 103 °C; that for `O=C1N(C(c2ccccc2)c2ccccc2)c2cc(F)ccc2C12COc1cc3c(cc12)CCO3` (stereo not drawn), 194 to 196 °C. Compound `C=CC(=O)OCCNC(=O)CCc1cc(-n2nc3ccccc3n2)c(O)c(C(C)(C)C)c1` showed a melting point of 80 to 83 °C.

For `Cc1cc(-n2cncn2)c2cccc(OCc3c(Cl)ccc(S(=O)(=O)N4CCC[C@H]4C(=O)N4CCN(c5ccccn5)CC4)c3Cl)c2n1`, the melting point was 108 °C. Take `Clc1ccc(C2NCCc3c2[nH]c2ccccc32)cc1` (stereo not drawn): the melting point came to 161 °C. In the case of `FC(F)(F)c1cccc(N2CCN(Cc3ccc(-c4ccccc4)o3)CC2)c1`, the melting point is 56 °C. On to `C=CCn1c(=O)c2cnc(Nc3ccc(N4CCN(C)CC4)cc3)nc2n(C(C)C)c1=O`, for which the melting point is 176 to 177 °C. Turning to `COc1ccc(Cc2ccc(-c3cnn4c(O)ncnc34)cc2)cc1`, the melting point lay in the range of 296 to 298 °C.

As for `COc1ccc(-c2nc3nccnc3[nH]2)c(N(C)C)c1`, the melting point lay in the range of 279 to 280 °C.

Regarding `CN(C)C[C@H]1CC[C@H](CCNc2ncc(Br)cn2)CC1`, the melting point was in the range of 108 to 110 °C. Under `CC(C)(C)OC(=O)N1CCn2c(c(C(N)=O)c(C#N)c2C2CCN(C(=O)OCc3ccccc3)CC2)C1` stands 90 °C. `Cc1ccc(C(=O)c2cccc(C)c2N)cc1` gave a melting point of 77 to 78 °C. For `CCc1ccccc1S(=O)(=O)N(OCCF)C(=O)n1nc(C)n(C2CC2)c1=O`, the melting point was determined as 147 °C.

With `CC(C)NC(=O)c1ccc2[nH]cc(CCNC(=O)OCc3ccccc3)c2c1`, the melting point fell in the range of 136 to 137 °C. The compound `O=C(NNCCO)c1ccc(NCc2cc(Br)ccc2OCc2ccccc2)cc1` displayed a melting point of 121 to 122 °C. Compound `COCOc1ccc(-c2ncc3ccc(-c4csc(CN5CCOCC5)c4)nc3n2)cc1` had a melting point of more than 268 °C. The result for `CC(C)C(c1ccc2[nH]c(=O)c(C(=O)O)nc2c1)n1ccnc1` (stereo not drawn) reads 238 °C; that for `N=C(N)c1ccc(-c2ccc(-n3cc(CCC(=O)O)c4ccccc43)nn2)cc1`, 288 to 292 °C; that for `CCn1ncc2c(NCC3CCCCC3)c3cc(OCCN4CCOCC4)ccc3nc21`, 176 to 178 °C. Compound `O=S(=O)(c1ccccc1)N1CCN(C(c2ccccc2)c2ccc(Cl)cc2)CC1` (single isomer, unassigned; (-)) returned a melting point of 116 to 118 °C. `CCc1ccc(Nc2c(-c3nnc(CC)o3)ccc(F)c2F)c(F)c1` gave a melting point of 82 to 83 °C. Take `CCOC(=O)c1sc(Oc2ccc(F)cc2)c2c1CCc1cnn(C)c1-2`: the melting point fell in the range of 94 to 95 °C. As to `CCCC(C)(N)Cc1c[nH]c2ccccc12` (stereo not drawn), the melting point was in the range of 73.5 to 74.5 °C. As for `CCCCc1c(/C=C/C(=O)O)cc(OC)c2ccccc12`, the melting point lay in the range of 166 to 167 °C. As for `CNC(=O)c1cnc(OCC(O)CNC(C)C)c(Cl)c1` (stereo not drawn), the melting point is 130 to 132 °C.

In turn, `COCCNc1nc(C2C(=O)Nc3ccc(Br)cc32)c2cn(CCOC)nc2n1` (stereo not drawn) showed a melting point of more than 300 °C. `COCOc1c(NC(=O)NCc2cccnc2)cc(OC)cc1C(C)(C)C`: the melting point was 108 to 109 °C. Under `CCCn1c(=O)c2c(NC)n[nH]c2n(Cc2cccnc2)c1=O` stands more than 300 °C; under `CC(C)CN1C(=O)C2CC(c3ccc([N+](=O)[O-])cc3)(C2)C1=O`, 136 to 137 °C; under `Cc1nn(-c2ccccn2)c2nc3ccccc3c(OCC(C)C)c12`, 117 to 120 °C. The compound `COc1ccc2c(n1)C1(CO2)C(=O)N(Cc2ccccn2)c2ccccc21` (stereo not drawn) gave a melting point of 168 to 171 °C. As for `Cc1cc(C)cc(NC(=O)Cc2ccc(OC3(C(=O)O)CCCC3C)cc2)c1` (stereo not drawn), the melting point lay in the range of 184 to 186 °C.
